Series [1] can be described thus: Ocular tissue, urine and plasma levels of total radioactivity following a single intravitreal dose. It counts as in vivo, New Zealand White rabbits. As for the experimental part:
A randomized, single treatment study, in nine groups of three NZW rabbits per group, was conducted. Animals were assigned to study groups by a computerized randomization program designed to achieve similar body weights per group. Naïve animals received an intra-vitreous injection of the test article at a nominal dose of 2.0 mg*eq [^14C]Tempol-H (1,4-dihydroxy-2,2,6,6-tetramethylpiperidine(2,4,6-^14C3)). A dose of 0.1 mL, containing 2.18 μCi was administered into both eyes. At nine specified time points post dose (1, 30, 60 minutes, 2, 4, 8, 24, 48, and 120 hours), three animals per group were euthanized and terminal samples were collected. The following tissues were harvested from each eye of all animals: aqueous humor, cornea, iris/ciliary body complex, vitreous humor, lens, retina-choroid plexus and optic nerve. Blood was collected from the marginal ear vein of all rabbits into tubes containing K3EDTA; urine was cage-collected daily from three animals up to 120 hour post dosing. Total radioactivity was determined in all samples by liquid scintillation counting.

For series [2], the system named is lens epithelial cells. The following applies: Mitchell et al. 1991; Krishna et al. 1991; cited from earlier work.
Series [3] has as its system cataract. Particulars: Zigler et al., U.S. Pat. No. 6,001,853; cited from earlier work.
The test system of series [4] is retinal S-antigen-induced experimental autoimmune uveoretinitis (EAU). The following applies: systemic injection, rat model (Zamir et al. 1999); cited from earlier work.
The mark [5] stands for this setting: New Zealand White, rabbit, in vivo, 8 h.

For the compound `CC1(C)CC(O)CC(C)(C)N1O` [Tempol-H, 1,4-dihydroxy-2,2,6,6-tetramethylpiperidine], in series [1] (setting [5]), the “concentration of radioactivity in the aqueous humor” value is recorded as around 30±8 μg eq/g, the “concentration of radioactivity in the cornea” value is around 2±0.1 μg eq/g, the “concentration of radioactivity in the iris/ciliary body” value is on record as around 6±0.5 μg eq/g and the “concentration of radioactivity in the lens” value is on record as around 41±6 μg eq/g. In series [1] (setting [5]), the “concentration of radioactivity in the optic nerve” value is around 4±0.5 μg eq/g, the “concentration of radioactivity in the retina-choroid plexus” value is recorded as around 18±2 μg eq/g and the “concentration of radioactivity in the vitreous humor” value is on record as around 25±3 μg eq/g. In addition, in series [1] (one minute post dosing, intravitreal), the “tissues with the highest concentrations of radioactivity” value was “retina-choroid plexus, vitreous humor and iris-ciliary body complex”. Besides, in series [1] (single intravitreal dose, all sampled ocular tissues, blood and plasma), the “levels of total radioactivity in sampled ocular tissues, blood and plasma” value was “Quantifiable levels of total radioactivity were observed in all sampled ocular tissues, blood and plasma”. Further, in series [2], the “protection of lens epithelial cells from oxidative damage” value is reported as “afforded no such protection”. Moreover, the “anti-cataractogenic effect compared with the corresponding nitroxide” value in series [3] is “better anti-cataractogenic composition than the corresponding nitroxide”.

Turning to `CC1(C)CC(O)CC(C)(C)N1[O]` [tempol, 4-hydroxy-2,2,6,6,-tetramethylpiperidine-1-N-oxyl], the “severity of experimental autoimmune uveoretinitis” value in series [4] is recorded as “reduced the severity”.
